What follows are compounds tested on FLAP (5-lipoxygenase activating protein) (assay: In vitro binding test: displacement of [3H]-7-chloro-3-(5-((3-fluoropyridin-2-yl)methoxy)-2-methylphenyl)-3,4-dihydroquinazolin-2(1H)-one from Sf9 microsome fractions). Details: Sf9 microsome fractions expressing FLAP; 100% = radioligand binding with 10 μM sodium 3-(3-(tert-butylsulfanyl)-1-(4-chlorobenzyl)-5-isopropyl-1H-indol-2-yl)-2,2-dimethylpropanoate, 0% = DMSO; test compound concentration not given.
Parameters: species or system human and mouse
In short: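 Sf9 microsomes expressing human or mouse FLAP (2 μg/mL) preincubated with compound 10 min at room temperature, then 120 nM tritiated quinazolinone ligand added for 60 min; buffer 100 mM Tris-HCl pH 7.5 with NaCl, EDTA, DTT, glycerol, Tween20. Bound ligand filtered and counted by scintillation; 10 μM indole propanoate defines 100% inhibition, DMSO 0%.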

| inhibitory rate (%) | Structure (SMILES) |
| --- | --- |
| 100 | Cc1ccc(OCc2ncccc2F)cc1N1Cc2cc(Cl)ccc2NC1=O [Example 243, 6-chloro-3-(5-((3-fluoropyridin-2-yl)methoxy)-2-methylphenyl)-3,4-dihydroquinazolin-2(1H)-one] |
| 103 | O=C1Nc2ccccc2CN1c1cc(OCc2ncccc2F)ccc1Cl [Example 231, 3-(2-chloro-5-((3-fluoropyridin-2-yl)methoxy)phenyl)-3,4-dihydroquinazolin-2(1H)-one] |
| 95 | COCCOc1cccc2[nH]c(=O)n(-c3cc(OCc4ncccc4F)ccc3C)c(=O)c12 [Example 366, 3-(5-((3-fluoropyridin-2-yl)methoxy)-2-methylphenyl)-5-(2-methoxyethoxy)quinazoline-2,4(1H,3H)-dione] |
| 98 | Cc1ccc(OCc2ncccc2F)cc1N1Cc2c(Br)cccc2NC1=O [Example 282, 5-bromo-3-(5-((3-fluoropyridin-2-yl)methoxy)-2-methylphenyl)-3,4-dihydroquinazolin-2(1H)-one] |
| 84 | CCc1ccc(OCc2c(F)cccc2F)cc1N1Cc2ccc(C(=O)OC)cc2NC1=O [Example 177, methyl 3-(5-((2,6-difluorobenzyl)oxy)-2-ethylphenyl)-2-oxo-1,2,3,4-tetrahydroquinazoline-7-carboxylate] |
| 81 | Cc1ccc(OCc2cccc(F)c2F)cc1N1Cc2ccc(C(C)(C)O)cc2NC1=O [Example 203, 3-(5-((2,3-difluorobenzyl)oxy)-2-methylphenyl)-7-(2-hydroxypropan-2-yl)-3,4-dihydroquinazolin-2(1H)-one] |
| 65 | O=c1[nH]c2cc[nH]c2c(=O)n1-c1cccc(OCc2c(F)cccc2F)c1 [Example 325, 3-(3-((2,6-difluorobenzyl)oxy)phenyl)-1H-pyrrolo[3,2-d]pyrimidine-2,4(3H,5H)-dione] |
| 85 | O=C1Nc2cc(CO)ccc2CN1c1cc(OCc2c(F)cccc2F)ccc1F [Example 234, 3-(5-((2,6-difluorobenzyl)oxy)-2-fluorophenyl)-7-(hydroxymethyl)-3,4-dihydroquinazolin-2(1H)-one] |
| 95 | O=c1[nH]c2ccccc2c(=O)n1-c1ccc2c(c1)OC(c1c(F)cccc1F)CC2 (centres unmarked) [Example 326, 3-(2-(2,6-difluorophenyl)-3,4-dihydro-2H-chromen-7-yl)quinazoline-2,4(1H,3H)-dione] |

Second part, the compound before the results:

| Structure (SMILES) | inhibitory rate (%) |
| --- | --- |
| Cc1cc2c(cc1N1Cc3cn(CC(F)(F)F)c(=O)cc3NC1=O)OC(c1ncccc1F)CC2 (centres unmarked) [Example 38, 3-(2-(3-fluoropyridin-2-yl)-6-methyl-3,4-dihydro-2H-chromen-7-yl)-6-(2,2,2-trifluoroethyl)-4,6-dihydropyrido[4,3-d]pyrimidine-2,7(1H,3H)-dione] | 104 |
| Cc1cc2c(cc1N1Cc3c(Cl)cnc(-c4ccoc4)c3NC1=O)OC(c1ncccc1F)CC2 (centres unmarked) [Example 164, 5-chloro-3-(2-(3-fluoropyridin-2-yl)-6-methyl-3,4-dihydro-2H-chromen-7-yl)-8-(3-furyl)-3,4-dihydropyrido[3,4-d]pyrimidin-2(1H)-one] | 102 |
| Cc1ccc(OCc2ncccn2)cc1N1Cc2c(Cl)cccc2NC1=O [Example 274, 5-chloro-3-(2-methyl-5-(pyrimidin-2-ylmethoxy)phenyl)-3,4-dihydroquinazolin-2(1H)-one] | 106 |
| COC(=O)c1ccc2c(c1)NC(=O)N(c1cc(OCc3cc(F)ccc3F)ccc1C)C2 [Example 199, methyl 3-(5-((2,5-difluorobenzyl)oxy)-2-methylphenyl)-2-oxo-1,2,3,4-tetrahydroquinazoline-7-carboxylate] | 60 |
| O=C(c1cc2c(c(C3CC3)n1)CN(c1cc3c(cc1Cl)CCC(c1ncccc1F)O3)C(=O)N2)N1CC2(COC2)C1 (centres unmarked) [Example 137, 3-(6-chloro-2-(3-fluoropyridin-2-yl)-3,4-dihydro-2H-chromen-7-yl)-5-cyclopropyl-7-(2-oxa-6-azaspiro[3.3]hept-6-ylcarbonyl)-3,4-dihydropyrido[4,3-d]pyrimidin-2(1H)-one] | 104 |
| Cc1ccc(OCc2ncccc2F)cc1N1Cc2c(Cl)cccc2N(CC(=O)O)C1=O [Example 285, (5-chloro-3-(5-((3-fluoropyridin-2-yl)methoxy)-2-methylphenyl)-2-oxo-3,4-dihydroquinazolin-1(2H)-yl)acetic acid] | 102 |
| Cc1ccc(OCc2ccccc2Cl)cc1N1Cc2ccccc2NC1=O [Example 173, 3-(5-((2-chlorobenzyl)oxy)-2-methylphenyl)-3,4-dihydroquinazolin-2(1H)-one] | 70 |
| Cc1cc2c(cc1N1Cc3c(cc(-n4cccn4)nc3C3CC3)NC1=O)OC(c1ncccc1F)CC2 (centres unmarked) [Example 132, 5-cyclopropyl-3-(2-(3-fluoropyridin-2-yl)-6-methyl-3,4-dihydro-2H-chromen-7-yl)-7-(1H-pyrazol-1-yl)-3,4-dihydropyrido[4,3-d]pyrimidin-2(1H)-one] | 104 |
| Cc1cc2c(cc1N1Cc3c(Cl)cnc(-c4c(C)nn(C)c4C)c3NC1=O)OC(c1ncccc1F)CC2 (single isomer, unassigned; (+)) [Example 14, (+)-5-chloro-3-(2-(3-fluoropyridin-2-yl)-6-methyl-3,4-dihydro-2H-chromen-7-yl)-8-(1,3,5-trimethyl-1H-pyrazol-4-yl)-3,4-dihydropyrido[3,4-d]pyrimidin-2(1H)-one] | 105 |
| O=C(c1cc2c(c(C3CC3)n1)CN(c1cc3c(cc1Cl)CCC(c1ncccc1F)O3)C(=O)N2)N1CC(F)(F)C1 (centres unmarked) [Example 139, 3-(6-chloro-2-(3-fluoropyridin-2-yl)-3,4-dihydro-2H-chromen-7-yl)-5-cyclopropyl-7-((3,3-difluoroazetidin-1-yl)carbonyl)-3,4-dihydropyrido[4,3-d]pyrimidin-2(1H)-one] | 98 |
| Cc1ccc(OCc2ncccc2F)cc1N1Cc2cccnc2NC1=O [Example 256, 3-(5-((3-fluoropyridin-2-yl)methoxy)-2-methylphenyl)-3,4-dihydropyrido[2,3-d]pyrimidin-2(1H)-one] | 85 |
| Cn1cc(-c2cc3c(c(C4CC4)n2)CN(c2cc4c(cc2Cl)CCC(c2ncccc2F)O4)C(=O)N3)cn1 (centres unmarked) [Example 100, 3-(6-chloro-2-(3-fluoropyridin-2-yl)-3,4-dihydro-2H-chromen-7-yl)-5-cyclopropyl-7-(1-methyl-1H-pyrazol-4-yl)-3,4-dihydropyrido[4,3-d]pyrimidin-2(1H)-one] | 100 |
| O=C(O)c1cc2c(c(C3CC3)n1)CN(c1cc3c(cc1Cl)CCC(c1ncccc1F)O3)C(=O)N2 (centres unmarked) [Example 71, 3-(6-chloro-2-(3-fluoropyridin-2-yl)-3,4-dihydro-2H-chromen-7-yl)-5-cyclopropyl-2-oxo-1,2,3,4-tetrahydropyrido[4,3-d]pyrimidine-7-carboxylic acid] | 107 |
| Cc1cc2c(cc1N1Cc3cnc(Cl)cc3NC1=O)OC(c1ncccc1F)CC2 (centres unmarked) [Example 47, 7-chloro-3-(2-(3-fluoropyridin-2-yl)-6-methyl-3,4-dihydro-2H-chromen-7-yl)-3,4-dihydropyrido[4,3-d]pyrimidin-2(1H)-one] | 114 |
